Measurements as given in patent publication US7713964B2, “Methods for treating asthmatic conditions” (Wyeth LLC, priority 2001, dated 2010).

Biological target: T1, cPLA2 (Homo sapiens, UniProt P47712)
T1 sequence (P47712 1-749): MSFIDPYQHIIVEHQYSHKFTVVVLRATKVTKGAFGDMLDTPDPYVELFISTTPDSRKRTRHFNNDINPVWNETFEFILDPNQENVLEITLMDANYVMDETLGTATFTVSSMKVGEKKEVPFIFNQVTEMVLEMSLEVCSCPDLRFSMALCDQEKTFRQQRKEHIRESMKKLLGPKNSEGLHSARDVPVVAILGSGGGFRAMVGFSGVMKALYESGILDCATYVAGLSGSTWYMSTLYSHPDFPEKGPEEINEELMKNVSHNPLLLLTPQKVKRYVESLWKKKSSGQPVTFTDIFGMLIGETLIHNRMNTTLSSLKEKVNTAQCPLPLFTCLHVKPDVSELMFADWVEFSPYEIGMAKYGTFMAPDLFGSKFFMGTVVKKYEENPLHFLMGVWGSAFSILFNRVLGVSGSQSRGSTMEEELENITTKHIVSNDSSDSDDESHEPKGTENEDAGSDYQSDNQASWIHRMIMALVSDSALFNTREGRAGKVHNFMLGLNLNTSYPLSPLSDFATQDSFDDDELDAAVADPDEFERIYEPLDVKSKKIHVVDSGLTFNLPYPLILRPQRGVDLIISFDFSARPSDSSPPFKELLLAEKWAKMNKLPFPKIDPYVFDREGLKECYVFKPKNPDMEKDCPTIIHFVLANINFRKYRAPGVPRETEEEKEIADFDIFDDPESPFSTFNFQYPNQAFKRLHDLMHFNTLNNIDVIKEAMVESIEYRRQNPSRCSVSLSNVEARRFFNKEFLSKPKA
Assay: Coumarine Assay (hydrolysis of 7-hydroxycoumarinyl 6-heptenoate by cPLA2, fluorometric)
Format: biochemical
Settings: 60 μM 7-hydroxycoumarinyl 6-heptenoate substrate, 4 μg cPLA2, pH 7.5; excitation 360 nm, emission 460 nm; read-out: Coumarin IC50
Description: Inhibitors were mixed with 200 μL assay buffer (80 mM Heped, pH 7.5, 1 mM EDTA) containing 60 μM 7-hydroxycoumarinyl 6-heptenoate. The reaction was initiated by adding 4 μg cPLA2 in 50 μL assay buffer. Hydrolysis of the 7-hydroxycounarimyl 6-heptenoate ester was monitored in a fluorometer by exciting at 360 nm and monitoring emission at 460 nm. Enzyme activity is proportional to the increase in emission at 460 nm per minute. In the presence of a cPLA2 inhibitor, the rate of increase is less.
“4-[2-(1-benzhydryl-5-chloro-2-{2-[({2-[(3R,5S)-3,5-dimethylmorpholin4-yl]ethyl}sulfonyl)amino]ethyl}-1H-indol-3-yl)ethoxy]benzoic acid [Example 250]” showed an IC50 of 2100 nM. For “4-{2-[1-benzhydryl-5-chloro-2-(2-{[(2,6-dimethylbenzyl)sulfonyl]amino}ethyl)-1H-indol-3-yl]ethoxy}benzoic acid [Example 279]”, the IC50 was 160 nM. Compound `O=C(O)c1ccc(OCCc2c(CCNS(=O)(=O)c3c(F)cccc3F)n(C(c3ccccc3)c3ccccc3)c3ccc(Cl)cc23)cc1` [Example 225, 4-{2-[1-benzhydryl-5-chloro-2-(2-{[(2,6-fluorophenyl)sulfonyl]amino}ethyl)-1H-indol-3-yl]ethoxy}benzoic acid] has an IC50 of 400 nM. Work on `O=C(O)c1cccc(OCCc2c(CCNS(=O)(=O)Cc3ccc(Cl)c(Cl)c3)n(C(c3ccccc3)c3ccccc3)c3ccc(Cl)cc23)c1` [Example 284, 3-(2-(1-benzhydryl-5-chloro-2-(2-((3,4-dichlorophenyl)methylsulfonamido)ethyl)-1H-indol-3-yl)ethoxy) benzoic acid] yielded an IC50 of 400 nM. With `O=C(O)c1ccc(OCCc2c(CCNS(=O)(=O)c3cccc(F)c3)n(C(c3ccccc3)c3ccccc3)c3ccc(Cl)cc23)cc1` [Example 223] the IC50 was 600 nM.

Test system: not given
Assay: not given
Settings: not given
Work on `O=C(O)c1ccc(OCCc2c(CCNS(=O)(=O)Cc3ccccc3Cl)n(C(c3ccccc3)c3ccccc3)c3ccc(Cl)cc23)cc1F` [Example 297, 4-{2-[1-benzhydryl-5-chloro-2-(2-{[(2-chlorobenzyl)sulfonyl]amino}ethyl)-1H-indol-3-yl]ethoxy}-2-fluorobenzoic acid] yielded a melting point of 132 to 135 °C. `CC(C)(Cc1ccc(S(=O)(=O)CCc2c(CCNS(=O)(=O)Cc3ccc(Cl)c(Cl)c3)n(C(c3ccccc3)c3ccccc3)c3ccc(Cl)cc23)cc1)C(=O)O` [Example 298, 3-[4-({2-[1-benzhydryl-5-chloro-2-(2-{[(3,4-dichlorobenzyl)sulfonyl]amino}ethyl)-1H-indol-3-yl]ethyl}sulfonyl)phenyl]-2,2-dimethylpropanoic acid] showed a melting point of 207 to 208 °C. Compound `O=C(O)c1ccc(OCCc2c(CCNS(=O)(=O)Cc3ccc(Cl)c(Cl)c3)n(C(c3ccccc3)c3ccccc3)c3ccc(Cl)cc23)cc1F` [Example 296, 4-{2-[1-benzhydryl-5-chloro-2-(2-{[(3,4-dichlorobenzyl)sulfonyl]amino}ethyl)-1H-indol-3-yl]ethoxy}-2-fluorobenzoic acid] has a melting point of 117 to 119 °C.
